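Results reflect a 48-hour exposure of cells in 96-well plates to compound at five concentrations. GI50 = concentration required for 50% inhibition of growth.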 Activity calls are given as the source filed them. No stated cut-off is given here; in the data, active = GI50 up to about 1.1 µM and inactive = higher. Starred links: 1 amine or outer side, 2 acyl side, 3 side chain; linkers in the order of their positions; H or OH if unused. Positions of bridges follow the written chain, without caps; N, C: chain ends. Non-standard residues stand in square brackets, D forms with d. Residues, ends and D or L forms follow the SMILES beside them. Chains are numbered I, II in the order given. Actinocin(9to1) = Cc1c2oc3c(C)ccc(C(=O)[*:1])c3nc-2c(C(=O)[*:2])c(N)c1=O; NMeV = CN[CH](C(=O)O)C(C)C; Sar = CNCC(=O)O
Legend:
Experiment in all cases: growth of human tumour cells (NCI), 48 h
Hs-578T = system: Hs-578T
DLD-1 = system: DLD-1
DMS-114 = system: DMS-114
HOP-18 = system: HOP-18
KM-20L2 = system: KM-20L2
M19-MEL = system: M19-MEL
SNB-78 = system: SNB-78
XF498 = system: XF498
RXF 631 = system: RXF 631

Cc1ccc(S(=O)(=O)N2CCCN(S(=O)(=O)c3ccc(C)cc3)CC2)cc1
GI50 (Hs-578T): > 100 µM (inactive)

O=C1CCC(NC(=O)c2ccccc2)C(=O)N1 (centres undefined)
GI50 (Hs-578T): > 100 µM (inactive)

NC(CCCCCP(=O)(O)O)C(=O)O (centres undefined) [AP-7]
GI50 (Hs-578T): > 100 µM (inactive)

CN1C(C)(C)CC(=O)C(Br)C1(C)C (centres undefined)
GI50 (Hs-578T): > 100 µM (inactive)

O=C1OC2C(O)COC2(O)C1(O)Cc1c[nH]c2ccccc12.O=C1OC2C(O)COC2(OCc2c[nH]c3ccccc23)C1O (centres undefined)
GI50 (DLD-1): > 100 µM (inactive) | GI50 (DMS-114): > 100 µM (inactive) | GI50 (HOP-18): > 100 µM (inactive) | GI50 (KM-20L2): > 100 µM (inactive) | GI50 (M19-MEL): > 100 µM (inactive) | GI50 (SNB-78): > 100 µM (inactive) | GI50 (XF498): > 100 µM (inactive)

COc1ccc(Nc2nc(N)c(C(=O)c3cccs3)s2)cc1
GI50 (Hs-578T): 11.5 µM (inactive)

OC12c3ccccc3C1CCCCCCCCCC21OCCO1 (centres undefined)
GI50 (DMS-114): > 100 µM (inactive) | GI50 (HOP-18): > 100 µM (inactive) | GI50 (KM-20L2): > 100 µM (inactive) | GI50 (M19-MEL): > 100 µM (inactive) | GI50 (SNB-78): > 100 µM (inactive)

CCOC(=O)C1C(=O)C=C(c2cc(C)ccc2O)CC1c1cccc(Cl)c1 (centres undefined)
GI50 (Hs-578T): 21 µM (inactive)

COc1ccc(C2C=C(c3ccc(C)cc3)N(c3ccc(OC)cc3[N+](=O)[O-])C3C(=O)OC(=O)C23)c(OC)c1 (centres undefined)
GI50 (Hs-578T): 22.5 µM (inactive)

OC1CCC[C@@H]1Sc1ccccc1 (some centres undefined)
GI50 (DLD-1): > 100 µM (inactive) | GI50 (DMS-114): > 100 µM (inactive) | GI50 (KM-20L2): > 100 µM (inactive) | GI50 (M19-MEL): > 100 µM (inactive) | GI50 (RXF 631): > 100 µM (inactive) | GI50 (SNB-78): > 100 µM (inactive) | GI50 (XF498): > 100 µM (inactive)

COCC1OC(OC2C3=C(C(C)C)CCC3(C)/C=C3\C(CCC3(O)COC)C(C)C2O)C(O)C2OC3OC12OC3(C)C1CO1 (centres undefined)
GI50 (Hs-578T): 19.6 µM (inactive)

O=S(=O)(Cc1nc2ccccc2s1)c1nc2ccccc2s1
GI50 (Hs-578T): 19.9 µM (inactive)

COc1cc(/C=C(\C#N)c2nc3ccccc3o2)ccc1O
GI50 (Hs-578T): 23.1 µM (inactive)

C/C(=N\NC(=S)N(C)CCN(C)C(=S)N/N=C(\C)c1ccccn1)c1ccccn1
GI50 (Hs-578T): 25.9 µM (inactive)

CC1=C2C=CC(=O)C[C@@]2(C)CCC1
GI50 (DLD-1): > 100 µM (inactive) | GI50 (DMS-114): > 100 µM (inactive) | GI50 (M19-MEL): > 100 µM (inactive) | GI50 (RXF 631): > 100 µM (inactive) | GI50 (SNB-78): > 100 µM (inactive) | GI50 (XF498): > 100 µM (inactive)

Cc1c2oc3c(C)ccc(C(=O)NC4C(=O)NC(Cc5ccc(O)cc5)C(=O)N5CCCC5C(=O)N(C)CC(=O)N(C)C(C(C)C)C(=O)OC4C)c3nc-2c(C(=O)NC2C(=O)NC(Cc3ccc(O)cc3)C(=O)N3CCCC3C(=O)N(C)CC(=O)N(C)C(C(C)C)C(=O)OC2C)c(N)c1=O (centres undefined) (I: TYP[Sar][NMeV] / II: TYP[Sar][NMeV]; ester I:1-I:C, II:1-II:C; linker I:N-II:N via Actinocin(9to1); configuration not given here)
GI50 (Hs-578T): 16.6 µM (inactive)

CCc1nc2cc3cccnc3c(Cl)c2[nH]c1=O
GI50 (Hs-578T): > 100 µM (inactive)

C=C1C(=O)O[C@H]2C1C[C@H](O)[C@@]1(C)OC1CC[C@@]1(C)O[C@H]21 (some centres undefined)
GI50 (Hs-578T): 37.3 µM (inactive)
